Ten compounds from patent US20230058189A1, “QUINOLIN-4-ONE AND 4(1H)-CINNOLINONE COMPOUNDS AND METHODS OF USING SAME” (Frequency Therapeutics, Inc., priority 2019, published 2023) can be followed below.

Bounds are passed on as bounds.

Format in all cases: biochemical
The target of one test is GSK3α (Homo sapiens, UniProt P49840). Briefly: GSK3α in vitro enzymatic assay (Kinase-Glo Max luminescence). Conditions: recombinant human GSK3, 10 μM ATP; approximate values; read-out: Potency GSK3alpha. The procedure, abridged: (§1)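 Recombinant human enzyme was run for 40 min at 30 °C in Tris pH 7.4 with 0.1 mg/ml GSK tide substrate, 10 uM ATP and 1% DMSO final, in duplicate. Remaining ATP was read by Kinase-Glo Max luminescence. IC50 came from a sigmoidal fit of percent activity.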
Sequence of GSK3α (P49840 whole entry): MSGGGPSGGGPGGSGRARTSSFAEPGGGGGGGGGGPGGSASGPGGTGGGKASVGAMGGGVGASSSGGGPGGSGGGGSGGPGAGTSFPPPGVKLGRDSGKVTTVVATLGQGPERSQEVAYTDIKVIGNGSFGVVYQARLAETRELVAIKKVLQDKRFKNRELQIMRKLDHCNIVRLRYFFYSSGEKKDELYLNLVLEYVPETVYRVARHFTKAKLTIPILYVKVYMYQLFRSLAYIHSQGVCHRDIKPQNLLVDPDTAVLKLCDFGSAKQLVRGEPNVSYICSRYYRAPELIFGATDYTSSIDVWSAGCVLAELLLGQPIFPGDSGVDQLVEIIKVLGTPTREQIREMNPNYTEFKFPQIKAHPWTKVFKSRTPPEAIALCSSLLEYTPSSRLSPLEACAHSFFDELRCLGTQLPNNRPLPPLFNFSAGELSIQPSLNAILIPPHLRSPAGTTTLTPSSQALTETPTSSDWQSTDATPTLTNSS

The next test addresses GSK3β (Homo sapiens, UniProt P49841). Briefly: GSK3β in vitro enzymatic assay (Kinase-Glo Max luminescence). The note with it: recombinant human GSK3, 10 μM ATP; approximate values; read-out: Potency GSK3beta. The procedure, abridged:
as §1

A further test has as its target LSD-1 (Homo sapiens, UniProt O60341). Nature of the test: LSD-1 A-screen (AlphaScreen) demethylase enzymatic assay. Conditions: 50 μM compound; approximate values; read-out: Potency LSD-1 % Inhibition at 50 μM. The procedure, abridged: (§2)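 Recombinant human demethylase was preincubated 30 min with compound, then reacted with histone H3 peptide substrate for 60 min at room temperature (1% DMSO, duplicates). Product was detected by AlphaScreen with primary antibody, acceptor and streptavidin donor beads. No-enzyme and no-compound wells set 0% and 100% activity; IC50 came from sigmoidal dose-response fits.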

The target in a further test is T1, LSD2 (Homo sapiens, UniProt Q8NB78).
T1 sequence (Q8NB78 1-822): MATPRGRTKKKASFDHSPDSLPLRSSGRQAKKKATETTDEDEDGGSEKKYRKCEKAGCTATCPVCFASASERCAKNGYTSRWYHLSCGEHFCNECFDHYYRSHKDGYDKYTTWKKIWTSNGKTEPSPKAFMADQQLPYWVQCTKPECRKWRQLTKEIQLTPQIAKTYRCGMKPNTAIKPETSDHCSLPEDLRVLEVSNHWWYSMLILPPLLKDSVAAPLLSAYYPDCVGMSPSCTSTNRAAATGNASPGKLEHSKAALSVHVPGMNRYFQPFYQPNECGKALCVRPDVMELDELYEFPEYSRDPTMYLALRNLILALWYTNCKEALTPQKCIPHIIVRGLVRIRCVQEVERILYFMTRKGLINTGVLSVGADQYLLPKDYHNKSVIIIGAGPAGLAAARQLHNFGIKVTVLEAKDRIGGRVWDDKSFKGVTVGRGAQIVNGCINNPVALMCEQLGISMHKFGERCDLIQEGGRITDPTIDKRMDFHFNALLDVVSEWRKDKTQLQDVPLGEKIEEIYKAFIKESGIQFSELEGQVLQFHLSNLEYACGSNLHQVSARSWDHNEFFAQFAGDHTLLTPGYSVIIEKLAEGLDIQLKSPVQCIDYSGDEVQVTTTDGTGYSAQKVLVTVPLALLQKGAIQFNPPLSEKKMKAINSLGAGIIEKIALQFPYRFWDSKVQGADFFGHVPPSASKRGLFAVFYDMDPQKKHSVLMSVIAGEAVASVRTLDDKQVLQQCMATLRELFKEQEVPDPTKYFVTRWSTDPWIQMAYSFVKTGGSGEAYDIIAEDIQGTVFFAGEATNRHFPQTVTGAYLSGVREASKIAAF
Briefly: LSD2 A-screen (AlphaScreen) demethylase enzymatic assay. The note with it: 50 μM compound; approximate values; read-out: Potency LSD-2 % Inhibition at 50 μM. In a few lines: as §2

Sequence of GSK3β (P49841 whole entry): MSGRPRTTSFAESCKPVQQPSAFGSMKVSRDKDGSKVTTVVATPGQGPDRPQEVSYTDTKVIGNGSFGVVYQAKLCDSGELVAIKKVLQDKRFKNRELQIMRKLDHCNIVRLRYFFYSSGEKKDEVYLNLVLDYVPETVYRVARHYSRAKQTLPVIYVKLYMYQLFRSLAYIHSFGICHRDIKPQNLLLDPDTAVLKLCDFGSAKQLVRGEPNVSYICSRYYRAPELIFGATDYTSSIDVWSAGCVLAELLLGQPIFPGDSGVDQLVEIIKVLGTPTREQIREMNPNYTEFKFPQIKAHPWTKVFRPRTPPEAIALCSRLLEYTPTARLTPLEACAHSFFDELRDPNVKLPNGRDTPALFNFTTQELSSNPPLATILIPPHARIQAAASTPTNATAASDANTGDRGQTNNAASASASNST

Regarding `CCn1cc(C(=O)O)c(=O)c2c(N)c(F)c(N[C@@H]3C[C@H]3c3ccccc3)cc21` [Compound I-21], the results for the IC50 on GSK3α and at GSK3β were 392 nM and 334 nM, respectively. Further, the figures for the inhibition at 50 µM on LSD-1 and at LSD2 were 19% and 0%, respectively.
Taken in the same sequence, the figures for `CCn1cc(C(=O)O)c(=O)c2c(N)c(F)c(N[C@H]3C[C@@H]3c3ccccc3)cc21` [Compound I-22] were 137 nM, 115 nM, 11% and 2%.
Taken in the same sequence, the figures for `CCn1cc(C(=O)O)c(=O)c2c(N)cc(NCCCc3ccccc3)cc21` [Compound I-57] were 762 nM, 1760 nM, 83% and 42%.
The corresponding values for `CCn1cc(C(=O)O)c(=O)c2c(N)c(F)c(N[C@H]3C[C@H](c4ccccc4)C3)cc21` [Compound I-60] are 32 nM, 31 nM, 15% and 4%.
As for `CCn1cc(C(=O)O)c(=O)c2c(N)c(F)c(N[C@H]3C[C@@H](c4ccccc4)C3)cc21` [Compound I-61], the values for the IC50 at GSK3α and on GSK3β were 72 nM and 268 nM, respectively. In addition, the inhibition at 50 µM on LSD-1 stood at 26%; on LSD2, 15%.
For the compound `CCn1cc(C(=O)O)c(=O)c2c(N)cc(NCCc3ccccc3)c(F)c21` [Compound I-65], the IC50 on GSK3α and at GSK3β was more than 10000 nM each time. Also, the results for the inhibition at 50 µM on LSD-1 and on LSD2 were 88% and 38%, respectively.
`CCn1cc(C(N)=O)c(=O)c2c(N)c(F)c(NCCc3ccccc3)cc21` [Compound I-66]: the figures for the IC50 on GSK3α and at GSK3β were 2.6 nM and 2.5 nM, respectively. The inhibition at 50 µM on LSD-1 was determined as 6%; at LSD2, 4%.
Taken in the same sequence, the figures for `CCn1cc(C#N)c(=O)c2c(N)c(F)c(NCCc3ccccc3)cc21` [Compound I-67] were 2 nM, 1.9 nM, 8% and 4%.
Taken in the same sequence, the figures for `CCn1cc(-c2nnn[nH]2)c(=O)c2c(N)c(F)c(NCCc3ccccc3)cc21` [Compound I-68] were 581 nM, 711 nM, 0% and 96%.
On to `CCn1cc(C(=O)O)c(=O)c2c(N)c(F)c(NC3CN(c4ccccc4)C3)cc21` [Compound I-69], for which the IC50 turned out to be 61 nM at GSK3α and 52 nM on GSK3β. For the same compound, the inhibition at 50 µM was 17% on LSD-1 and 3% at LSD2.
